Results published in EP0291007A1, “Rhodanine derivative, process for preparing the same and pharmaceutical composition containing the same” (KAKEN PHARMACEUTICAL CO., LTD., priority 1987, dated 1988).
Marks after values point to notes of the source that are not given here.

Experiments:
Acute toxicity in mice = assay type: in vivo; conditions: mouse, in vivo; oral, mice observed for 2 weeks; read-out: LD₅₀ (oral)
Excerpt: (§1) The acute toxicity in mice was examined by using the rhodanine derivatives of compound Nos. 1, 2, 5, 7 and 10.

male ddY mice = experiment: Acute toxicity in mice; assay type: in vivo; conditions: oral, up to a dose of 2,000 mg/kg body weight, observed for 2 weeks
Excerpt: as §1

[1] = system: accumulation of sorbitol in nervous tissues; experiment: Inhibiting activity of the accumulation of sorbitol in nervous tissues of streptozotocin-diabetic rats; assay type: in vivo, SD male rats; conditions: single dose 48 h after streptozotocin, sciatic nerve sorbitol 5 hours after administration, mean ± spread
Experimental: After preliminary breeding SD male rats (6 weeks old) in this laboratory for 5 days, streptozotocin (made by Sigma Chemical Company) was administered intravenously (45 mg/kg body weight) to the rats to destroy β cells of Langerhans' islets in pancreas. Thus, rats suffering from diabetes were obtained.
After 48 hours from the administration of streptozotocin, the rhodanine derivative suspended in a 5 % aqueous solution of gum arabic was administered orally (100 mg/kg body weight or 25 mg/kg body weight) to the rats suffering from diabetes.
On the other hand, a 5 % aqueous solution of gum arabic having no rhodanine derivative was administered orally (5 mℓ/kg body weight) to the rats (a control group).
After 5 hours from the administration, the rats were sacrificed by the decapitation and bled to death. Immidiately, the sciatic nervous tissues of the rats were excised and frozen with dry ice. The excised sciatic nervous tissues were stored at -70°C until the sorbitol amount was measured.
After the wet weights of nervous tissues were measured, the tissues were homogenized in 1.0 mℓ of distilled water by using a homogenizer, to which 0.2 mℓ of a 4.5 % aqueous solution of barium hydroxide and 0.2 mℓ of a 5 % aqueous solution of zinc sulfate were added. The mixture was centrifuged for 10 minutes at 3,000 rpm to remove a precipitate. Ion exchange resins "Dowex 50 W" (Dow Chemical Co.) and "Duolite A-4" (Sumitomo Chemical Company, Limited.) purchased were added in small amounts to the obtained supernatant to desalt, which was recentrifuged to obtain a supernatant. To 0.5 mℓ of the extract of sorbitol were added 1.0 mt of a 50 mM glycine-sodium hydroxide buffer solution (pH 9.4) containing 0.2 mM nicotinamide adenine dinucleotide (NAD) and 50 µℓ of an enzyme solution containing 83 µg of sorbitol dehydrogenase (commercially available from BOEHRINGER MANNHEIM CORPORATION), and the mixture was reacted at room temperature for one hour. The amount of NADH formed by oxidation of sorbitol was measured by using a spectrofluorimeter and a sorbitol concentration in the extracts was measured. From the obtained results, sorbitol concentrations in nervous tissues (n mole/mg wet weight) were calculated.
A difference between the sorbitol content of the normal rat (0.12 ± 0.01 n mole/mg) and that of the rat suffering from diabetes (0.81 ± 0.06 n mole/mg) was defined as an amount of sorbitol accumulated in the tissues due to diabetes (hereinafter referred to as "sorbitol amount due to diabetes"). Also, a difference between the sorbitol content of the rat suffering from diabetes (0.81 ± 0.06 n moles/mg) and the sorbitol content of the rat suffering from diabetes which was administered the rhodanine derivative was defined as a lowering of the amount of sorbitol due to administration of the rhodanine derivative (hereinafter referred to as "lowering of sorbitol").
A lowering percentage (%) was defined as a percentage of the lowering of sorbitol to the sorbitol amount due to diabetes. The lowering percentages of the rhodanine derivatives (Compound Nos. 1-11) are shown in Table 3 (administered 100 mg/kg body weight) and Table 4 (administered 25 mg/kg body weight) with the number of rats suffering from diabetes.

[2] = system: accumulation of galactitol in red blood cells; experiment: Inhibiting activity of the accumulation of galactitol in red blood cells of galactose-fed dogs; assay type: in vivo, beagle dogs; conditions: 10 mg/kg body weight orally once daily for 3 days; blood 10 hours after galactose 15 g/kg; control group 125 ± 10
Experimental: Each of Compound Nos. 1-11 was administered orally in a dosage of 10 mg/kg body weight once daily for 3 days with a capsule (administration time: 9 a.m. to 9:30 a.m.) to a male or female beagle dogs (body weight: from 8 to 12 kg). As the control group, the dogs were administered with vacant capsules in the same manner as above. Dog foods containing galactose in an amount of 15 g/kg body weight were given to the dogs immediately after the final administration of the capsule. The dogs completely had eaten the dog foods for 5 to 10 minutes. The blood was collected from the cephalic vein of the dog using heparine sodium after 10 hours from the administration of galactose. The collected blood was centrifuged to give red blood cells. The obtained red blood cells were washed twice with a cold physiological saline solution and were hemolysed in distilled water having an equal volume to the red blood cells.
After removing protein from the obtained solution, the resulting solution was treated with ion exchange resins, "Dowex 50 W" and "Duolite A-4", desalted and lyophilized. After subjecting to the pre-treatment of galactitol with trimethyl silyl ether (TMS), the amount of galactitol accumulated in the red blood cells was measured by a gas chromatography.

[3] = system: rats suffering from diabetes; experiment: Improving activity of the nerve conduction velocity in diabetic rats (tail nerve, method of Miyoshi); assay type: in vivo; conditions: 100 mg/kg body weight once daily for 2 weeks, control group 24.5 ± 1.2, normal rat 38.4 ± 2.2
Experimental: Rats suffering from diabetes for the test were prepared in the same manner as in Example 13.
From the day after the administration of streptozotocin, each of Compound Nos. 1-11 suspended in a 5 % aqueous solution of gum arabic was administrated to the rats in a dosage of 100 mg/kg body weight once daily for 2 weeks.
As the control groups, a 5 % aqueous solution of gum aratic having no rhodanine derivative was administered (5 mℓ/kg body weight) in the same manner as above to the rats.
Two weeks later, the conduction velocity of nerve of the rats was measured in accordance with the method of Miyoshi [Fukuoka Medical Jounal, 62(7), 588 to 603(1971)]. In this test, the nerves of the rats' tails were used as materials studied.
The rats were anesthetized with pentobarbital (30 to 45 mg/kg body weight, intraperitoneal administration), and then the conduction velocities of nerves were measured in a constant-temperature box having a temperature of 40°C.
The nerve of rat's tail was pricked with needle electrodes at a portion of about 1 cm from the anus (the first stimulation point) and at a portion of about 5 cm in a distal direction from the first stimulation point (the second stimulation point). Further, the segmental muscle of the rat's tail was pricked with a coaxial needle electrode at a portion of about 5 cm in a distol direction from the second stimulation point. The longitudinal nerve trunk of the rat's tail was stimulated at the first stimulation point and the second stimulation point to record action potentials of the provoked muscle.
The conduction velocity of nerve was calculated as follows: [formula]
Also, with respect to the normal rats administered with a 5 % aqueous solution of gum arabic, the conduction velocity of nerve was measured in the same manner as above.

[4] = system: rats suffering from diabetes; experiment: Inhibiting activity of the progress of cataract in diabetic rats (lens opacity score by slit lamp); assay type: in vivo; conditions: 100 mg/kg body weight orally daily for 5 weeks; average lens score (0-4) of both eyes; control group 1.46 ± 0.12, normal rats 0
Experimental: Rats suffering from diabetes for the test were produced in the same manner as in Example 13.
From the day after the administration of streptozotocin, each of Compound Nos. 1-11 suspended in a 5 % aqueous solution of gum arabic was administered orally 100 mg/kg body weight daily for 5 weeks to the rats. As the control group, a 5 % aqueous solution of gum arabic having no rhodanine derivative was administered (5 mℓ/kg body weight) to the rats in the same manner as above.
After administering streptozotocin, lenses of the rats were observed by using a slit lump (commercially available from KOWA Co., Ltd. under a trade name "Kowa SL-2") every second or third day for 5 weeks, sufficiently keeping the lenses mydriasis with a mydriatic (commercially available from Santen Pharmaceutical Co., Ltd. under the trade name "MYDRIN-P".
The opaqueness of the lenses was estimated according to the following criteria. Score 0: There was no change in the lenses. […] Score 3: Opacity was observed over the whole of lens' surface and the fundus oculi was not seen as if projected through the lens. Score 4: The nucleus lentis became opaque.
Also, with respect to the normal rats administered with a 5 % aqueous solution of gum arabic, the opaqueness were estimated in the same manner as above.

[5] = system: accumulation of sorbitol in nervous tissues; experiment: Inhibiting activity of the accumulation of sorbitol in nervous tissues of streptozotocin-diabetic rats; assay type: in vivo, SD male rats; conditions: comparison compounds with linear alkyl group at 5-position; dose not stated

Structure (SMILES)	LD50 at 336 h (Acute toxicity in mice)	dead mice (male ddY mice)	Lowering percentage (%) ([1]; 25 mg/kg body weight orally)	Lowering percentage (%) ([1]; 100 mg/kg body weight orally)	Amount of galactitol in red blood cells (ng/g hemoglobin) [2]	Conduction velocity of nerve (m/sec) [3]	Opaqueness [4]	inhibition of the accumulation of sorbitol [5]
CC(C)(C)CC1SC(=S)N(CC(=O)O)C1=O (stereo not drawn) [Compound No. 7, 3-Carboxymethyl-5-(2,2-dimethylpropyl)rhodanine]	> 2000 mg/kg	no dead mice were observed	52.5 ± 3.4 %	80.9 ± 5.8*^3%	48 ± 3 ng/g hemoglobin	38.5 ± 4.0 m/sec	0.32 ± 0.05	–
CC(C)CCC1SC(=S)N(CC(=O)O)C1=O (stereo not drawn) [Compound No. 8, 3-Carboxymethyl-5-(3-methylbutyl)rhodanine]	–	–	12.2 ± 1.8 %	23.0 ± 6.2*^1%	72 ± 11 ng/g hemoglobin	35.2 ± 1.5 m/sec	0.89 ± 0.10	–
CCC(C)CC1SC(=S)N(CC(=O)O)C1=O (stereo not drawn) [Compound No. 9, 3-Carboxymethyl-5-(2-methylbutyl)rhodanine]	–	–	19.0 ± 3.5 %	49.9 ± 6.9*^2%	69 ± 10 ng/g hemoglobin	33.6 ± 2.6 m/sec	0.72 ± 0.11	–
CCC(CC)CC1SC(=S)N(CC(=O)O)C1=O (stereo not drawn) [Compound No. 10, 3-Carboxymethyl-5-(2-ethylbutyl)rhodanine]	> 2000 mg/kg	no dead mice were observed	18.2 ± 2.0 %	42.9 ± 7.6*^2%	90 ± 10 ng/g hemoglobin	34.1 ± 4.3 m/sec	0.74 ± 0.12	–
CC(C)C(C)C1SC(=S)N(CC(=O)O)C1=O (stereo not drawn) [Compound No. 2, 3-Carboxymethyl-5-(1,2-dimethylpropyl)-rhodanine]	> 2000 mg/kg	no dead mice were observed	36.5 ± 4.7 %	68.2 ± 10.6*^3%	66 ± 5 ng/g hemoglobin	36.6 ± 2.7 m/sec	0.61 ± 0.07	–
CCCC1SC(=S)N(CC(=O)O)C1=O (stereo not drawn) [3-carboxymethyl-5-n-propylrhodanine]	–	–	–	–	–	–	–	hardly inhibited the accumulation of sorbitol
CC(CCCCl)C1SC(=S)N(CC(=O)O)C1=O (stereo not drawn) [Compound No. 4, 3-Carboxymethyl-5-(1-methyl-4-chlorobutyl)-rhodanine]	–	–	32.2 ± 4.4 %	60.1 ± 7.3*^3%	59 ± 6 ng/g hemoglobin	37.0 ± 3.5 m/sec	0.68 ± 0.09	–
CCCC(CCC)C1SC(=S)N(CC(=O)O)C1=O (stereo not drawn) [Compound No. 6, 3-Carboxymethyl-5-(1-propylbutyl)rhodanine]	–	–	16.1 ± 3.2 %	28.4 ± 7.4*^1%	86 ± 12 ng/g hemoglobin	33.0 ± 3.1 m/sec	0.90 ± 0.12	–
CCC(CC)C1SC(=S)N(CC(=O)O)C1=O (stereo not drawn) [Compound No. 1, 3-Carboxymethyl-5-(1-ethylpropyl)rhodanine]	> 2000 mg/kg	no dead mice were observed	19.8 ± 3.2 %	51.5 ± 4.8*^3%	82 ± 6 ng/g hemoglobin	36.2 ± 3.4 m/sec	0.98 ± 0.06	–
O=C(O)CN1C(=O)C(CC2CCCCC2)SC1=S (stereo not drawn) [Compound No. 11, 3-Carboxymethyl-5-cyclo-hexylmethylrhodanine]	–	–	13.0 ± 2.9 %	27.7 ± 1.6*^1%	87 ± 13 ng/g hemoglobin	31.8 ± 1.3 m/sec	0.90 ± 0.13	–
CCCC(CC)C1SC(=S)N(CC(=O)O)C1=O (stereo not drawn) [Compound No. 5, 3-Carboxymethyl-5-(1-ethylbutyl)rhodanine]	> 2000 mg/kg	no dead mice were observed	15.2 ± 2.1 %	30.9 ± 8.8*^1%	94 ± 7 ng/g hemoglobin	32.4 ± 2.8 m/sec	0.92 ± 0.10	–
CCC(CCCl)C1SC(=S)N(CC(=O)O)C1=O (stereo not drawn) [Compound No. 3, 3-Carboxymethyl-5-(1-ethyl-3-chloropropyl)-rhodanine]	–	–	34.0 ± 6.2 %	62.4 ± 9.4*^3%	57 ± 12 ng/g hemoglobin	34.2 ± 1.8 m/sec	0.55 ± 0.06	–
